Data from patent US20050085644A1, “Novel 3-aryl-2,5-dihydroxy-1,4-benzoquinone derivatives, their preparation method and pharmaceutical compositions containing same” (priority 2002, published 2005).

How the values were obtained:
[1] = tested on: ob/ob C57BL/6 mice; assay: Chronic in vivo study in ob/ob mice; details: female ob/ob C57BL/6 mice, 9 days, 10 or 20 mg/kg po
Protocol: 11-week-old female ob/ob C57BL/6 mice randomly selected in terms of basal glycaemia from animals that have been fed are treated for 9 days with the test compound at 10 or 20 mg/kg po and compared with a control group receiving 1% HEC. Biological balance (glycaemia, insulinaemia, triglyceridaemia) is reached on the 10th day with the animals that have been fed, the final treatment having taken place the day before. The results are expressed as percentage variations in relation to D0 (glycaemia, body weight) compared with the control group.

[2] = tested on: protein kinase B; assay: Activation (phosphorylation) of protein kinase B in CHO-HIR cells, immunoblotting; format: cell-based, hamster; details: 10^−5M, two hours at 37° C.
Protocol: (§1) The pharmacological effect of the compounds of the invention on cellular signaling is evaluated in vitro using hamster ovary cells transfected with human insulin receptors (CHO-HIR). The techniques employed are from TAVARE and DENTON (1988, BIOCHEM. J., 250, 509-519) and TAVARE et al. (1988, Biochem. J., 253, 783-788) modified by ISSAD et al. (1991, Biochem. J., 275, 15-21) and COMBETTES-SOUVERAIN et al. (1997, Diabetologia, 40, 533-540).
(§2) The products are studied at 10^−5M under incubation for two hours at 37° C. with CHO-HIR in culture. A negative control (solvent) and a positive control (insulin 50 nM, 5 min incubation) are used in parallel in the same test. […]
(§3) The phosphorylation of the insulin receptors (IR) and the phosphorylation of protein kinase B are evaluated by immunoblotting as follows.
Similarly, the state of phosphorylation of protein kinase B following electrophoresis of the samples on 10% polyacrylamide gel is determined by chemiluminescence after immunoblotting with anti-phospho protein kinase B antibodies (phospho Akt(Ser473) antibody, ref 9271, Cell Signaling) and then related to the total protein kinase B quantity (AKT antibody, ref 9272, Cell signaling).
The phosphorylation induced by the compounds of the invention is expressed as a percentage in relation to 50 nM insulin, fixed at 100% activation.

[3] = molecular target: T1, human insulin receptors (Homo sapiens, UniProt P06213); assay: Activation (phosphorylation) of insulin receptors in CHO-HIR cells, immunoblotting; format: cell-based; details: 2 h, 10^−5M, two hours at 37° C., read-out: activation percentage for insulin receptors (phosphorylation in relation to 50 nM insulin fixed at 100%)
T1 construct: expressed in transfected cells; host or cells: CHO-HIR (hamster ovary cells)
T1 sequence (P06213 28-758 limits assumed): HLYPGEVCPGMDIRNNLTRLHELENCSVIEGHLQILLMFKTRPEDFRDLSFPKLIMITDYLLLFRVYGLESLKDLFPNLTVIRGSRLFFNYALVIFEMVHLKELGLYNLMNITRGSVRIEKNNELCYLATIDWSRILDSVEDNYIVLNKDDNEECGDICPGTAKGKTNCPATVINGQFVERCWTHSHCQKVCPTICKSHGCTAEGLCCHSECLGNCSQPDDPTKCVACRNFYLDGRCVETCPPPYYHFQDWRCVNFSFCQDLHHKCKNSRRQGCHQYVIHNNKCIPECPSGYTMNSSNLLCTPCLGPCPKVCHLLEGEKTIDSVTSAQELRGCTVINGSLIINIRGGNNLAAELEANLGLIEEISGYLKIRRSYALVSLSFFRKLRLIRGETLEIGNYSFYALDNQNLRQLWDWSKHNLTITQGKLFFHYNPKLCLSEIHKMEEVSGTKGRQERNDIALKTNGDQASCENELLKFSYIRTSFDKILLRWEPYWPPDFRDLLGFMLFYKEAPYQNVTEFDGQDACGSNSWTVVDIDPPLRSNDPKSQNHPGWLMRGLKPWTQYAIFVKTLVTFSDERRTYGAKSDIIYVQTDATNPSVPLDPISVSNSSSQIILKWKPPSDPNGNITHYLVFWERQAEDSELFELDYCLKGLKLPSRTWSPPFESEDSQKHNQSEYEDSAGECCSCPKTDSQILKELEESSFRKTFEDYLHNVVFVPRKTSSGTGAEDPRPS
Protocol: as §1, §2, §3
The IR are extracted over wheatgerm lectin; the samples are then subjected to electrophoresis on 7.5% polyacrylamide gel and subjected to an electric transfer onto PDVF membrane in a semi-dry system. […] After dehydridisation and then rehydridisation with an anit-insulin receptor β subunit antibody (βsubunit, ref 06492, Upstate Biotechnology), the total IR quantity deposited on blot is evaluated by chemiluminescence and the phosphorylation rate of the receptors is related to the total receptor quantity deposited. […]

Structure (SMILES): O=C1C(O)=C(c2ccccc2)C(=O)C(O)=C1/C=C/c1ccccc1 [Example 1, 2,5-Dihydroxy-3-phenyl-6-[(E)-2-phenylethenyl]-1,4-benzoquinone]
- triglycerides, reduction compared with the control ([1]; fed, 10th day): −37.8%
- melting point: 259 to 260 °C

Structure (SMILES): O=C1C(O)=C(c2ccccc2)C(=O)C(O)=C1/C=C/c1ccc(Br)cc1 [Example 3, 2,5-Dihydroxy-3-phenyl-6-[(E)-2-(4-bromophenyl)-ethenyl]-1,4-benzoquinone]
- melting point: 240 to 241 °C

Structure (SMILES): C/C(=C\c1ccccc1)C1=C(O)C(=O)C(c2ccccc2)=C(O)C1=O [Example 10, 2,5-Dihydroxy-3-[(E)-1-methyl-2-phenylethenyl]-6-phenyl-1,4-benzoquinone]
- activation percentage for protein kinase B (phosphorylation in relation to 50 nM insulin fixed at 100%) [2]: 91%

Structure (SMILES): O=C1C(O)=C(c2ccc3ccccc3c2)C(=O)C(O)=C1c1ccc(Cl)cc1 [Example 16, 2-(4-Chlorophenyl)-3,6-dihydroxy-5-(2-naphthyl)-1,4-benzoquinone]
- insulinaemia, variation compared with the controls ([1]; fed, 10th day): −84.2%
- glycaemia, percentage variation in relation to D0 ([1]; fed, 10th day, controls +4.5%): −60.7%
- body weight, percentage variation in relation to D0 ([1]; control group +4.9%): −26.9%

Structure (SMILES): O=C1C(O)=C(c2ccccc2)C(=O)C(O)=C1/C=C/c1ccc(F)cc1 [Example 27, 2-[(E)-2-(4-Fluorophenyl)ethenyl]-3,6-dihydroxy-5-phenyl-1,4-benzoquinone]
- activation at 10 µM [3]: 87.7%
- activation percentage for protein kinase B (phosphorylation in relation to 50 nM insulin fixed at 100%) [2]: 48.9%

Structure (SMILES): O=C1C(O)=C(c2cccc(Cl)c2)C(=O)C(O)=C1/C=C/c1ccccc1 [Example 30, 2-(3-Chlorophenyl)-3,6-dihydroxy-5-[(E)-2-phenylethenyl]-1,4-benzoquinone]
- activation at 10 µM [3]: 134%
